Molecular target: Vascular endothelial growth factor receptor 2 (Homo sapiens, UniProt P35968)
Experiment: Inhibitory concentration against human Vascular endothelial growth factor receptor 2

Chain of Vascular endothelial growth factor receptor 2 (P35968 whole entry): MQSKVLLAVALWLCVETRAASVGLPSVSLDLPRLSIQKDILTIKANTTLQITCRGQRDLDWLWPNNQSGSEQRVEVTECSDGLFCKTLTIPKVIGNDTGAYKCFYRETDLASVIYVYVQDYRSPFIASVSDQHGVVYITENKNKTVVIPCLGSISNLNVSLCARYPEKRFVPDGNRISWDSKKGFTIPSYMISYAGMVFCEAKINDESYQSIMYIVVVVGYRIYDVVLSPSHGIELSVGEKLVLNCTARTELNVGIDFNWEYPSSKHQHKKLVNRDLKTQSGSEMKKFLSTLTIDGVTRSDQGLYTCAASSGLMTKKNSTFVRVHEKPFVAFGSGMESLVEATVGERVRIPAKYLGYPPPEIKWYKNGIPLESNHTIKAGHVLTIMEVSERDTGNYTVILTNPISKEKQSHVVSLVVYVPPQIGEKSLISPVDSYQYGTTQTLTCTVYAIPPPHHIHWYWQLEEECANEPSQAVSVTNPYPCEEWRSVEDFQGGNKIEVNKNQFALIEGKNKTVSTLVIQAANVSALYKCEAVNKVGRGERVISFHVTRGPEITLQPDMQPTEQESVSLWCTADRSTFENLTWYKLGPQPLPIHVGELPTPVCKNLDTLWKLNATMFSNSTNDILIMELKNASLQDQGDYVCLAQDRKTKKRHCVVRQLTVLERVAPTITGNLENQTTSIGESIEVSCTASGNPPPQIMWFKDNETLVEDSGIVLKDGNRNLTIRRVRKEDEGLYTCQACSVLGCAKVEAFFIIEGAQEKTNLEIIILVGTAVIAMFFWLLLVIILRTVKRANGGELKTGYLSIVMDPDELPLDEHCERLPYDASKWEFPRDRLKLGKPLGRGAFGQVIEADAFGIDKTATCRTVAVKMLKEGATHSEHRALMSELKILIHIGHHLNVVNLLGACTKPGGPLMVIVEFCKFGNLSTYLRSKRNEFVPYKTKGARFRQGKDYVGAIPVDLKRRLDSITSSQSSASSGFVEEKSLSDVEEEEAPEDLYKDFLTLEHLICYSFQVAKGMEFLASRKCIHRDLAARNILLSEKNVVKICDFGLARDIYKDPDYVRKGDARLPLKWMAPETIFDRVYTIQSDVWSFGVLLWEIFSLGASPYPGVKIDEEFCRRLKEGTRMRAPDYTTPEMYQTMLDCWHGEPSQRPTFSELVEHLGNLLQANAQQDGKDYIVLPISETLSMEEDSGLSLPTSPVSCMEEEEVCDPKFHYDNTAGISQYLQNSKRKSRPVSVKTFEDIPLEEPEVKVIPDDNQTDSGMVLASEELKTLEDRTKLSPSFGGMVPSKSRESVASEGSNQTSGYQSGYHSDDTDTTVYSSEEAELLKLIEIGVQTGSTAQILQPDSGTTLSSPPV

IC50: 5 µM
Structure (SMILES): C/C(=C\C=C\CC(C)C(CC(=O)O)O[C@H]1O[C@@H](CO)[C@H](O)[C@H](O)[C@@H]1O)C(=O)O (stereo partly specified)
